Our source for the ΔTm and IC50 values is ChEMBL document CHEMBL5360622, “Leucettinibs, a Class of DYRK/CLK Kinase Inhibitors Inspired by the Marine Sponge Natural Product Leucettamine B” (J Med Chem, 2023).

The target in assay [1] is T1, Dual specificity protein kinase CLK1 (Homo sapiens, UniProt P49759). Conditions: dose 10.0 µM.
The target of assay [2] is T2, Dual specificity protein kinase CLK3 (Homo sapiens, UniProt P49761). Conditions: dose 10.0 µM.
Assay [3] deals with Dual specificity tyrosine-phosphorylation-regulated kinase 2 (Homo sapiens) (UniProt Q92630). Conditions: dose 10.0 µM.
For assay [4], the target named is T3, Mitogen-activated protein kinase 15 (Homo sapiens) (UniProt Q8TD08).
T3 sequence (whole entry): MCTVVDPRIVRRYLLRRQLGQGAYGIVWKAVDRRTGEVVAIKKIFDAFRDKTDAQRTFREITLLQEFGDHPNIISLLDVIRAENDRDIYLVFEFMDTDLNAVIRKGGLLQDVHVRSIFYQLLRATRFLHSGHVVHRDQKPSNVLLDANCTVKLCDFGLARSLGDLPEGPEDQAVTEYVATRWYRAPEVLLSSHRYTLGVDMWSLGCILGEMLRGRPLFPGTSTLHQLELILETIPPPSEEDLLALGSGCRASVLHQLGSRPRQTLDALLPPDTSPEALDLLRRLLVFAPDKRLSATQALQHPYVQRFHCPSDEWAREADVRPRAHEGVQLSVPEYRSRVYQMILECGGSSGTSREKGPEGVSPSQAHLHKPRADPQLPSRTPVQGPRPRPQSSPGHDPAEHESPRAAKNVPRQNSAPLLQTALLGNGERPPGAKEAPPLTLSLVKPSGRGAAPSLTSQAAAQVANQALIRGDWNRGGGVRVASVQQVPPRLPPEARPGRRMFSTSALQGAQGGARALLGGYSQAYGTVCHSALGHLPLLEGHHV
Conditions: dose 10.0 µM.

Assay [5] addresses Calcium/calmodulin-dependent protein kinase kinase 2 (Homo sapiens) (UniProt Q96RR4). Particulars: dose 10.0 µM.
Assay [6] deals with BMP-2-inducible protein kinase (Homo sapiens) (UniProt Q9NSY1). Particulars: dose 10.0 µM.
Assay [7] concerns the target Casein kinase II subunit alpha (Homo sapiens) (UniProt P68400). Conditions: dose 10.0 µM.
Assay [8] addresses Serine/threonine-protein kinase haspin (Homo sapiens) (UniProt Q8TF76). Particulars: dose 10.0 µM.
Assay [9] addresses Aurora kinase A (Homo sapiens) (UniProt O14965). Conditions: dose 10.0 µM.
Assay [10] addresses T4, Glycogen synthase kinase-3 beta (Homo sapiens, UniProt P49841). Particulars: dose 10.0 µM.
Assay [11] has as its target AP2-associated protein kinase 1 (Homo sapiens) (UniProt Q2M2I8). Particulars: dose 10.0 µM.
Assay [12] concerns the target Myotonin-protein kinase (Homo sapiens) (UniProt Q09013). Conditions: dose 10.0 µM.
For assay [13], the target named is T5, Casein kinase I isoform epsilon (Homo sapiens, UniProt P49674). Particulars: dose 10.0 µM.
Target sequence in this assay (P49674 whole entry, looked up, canonical isoform): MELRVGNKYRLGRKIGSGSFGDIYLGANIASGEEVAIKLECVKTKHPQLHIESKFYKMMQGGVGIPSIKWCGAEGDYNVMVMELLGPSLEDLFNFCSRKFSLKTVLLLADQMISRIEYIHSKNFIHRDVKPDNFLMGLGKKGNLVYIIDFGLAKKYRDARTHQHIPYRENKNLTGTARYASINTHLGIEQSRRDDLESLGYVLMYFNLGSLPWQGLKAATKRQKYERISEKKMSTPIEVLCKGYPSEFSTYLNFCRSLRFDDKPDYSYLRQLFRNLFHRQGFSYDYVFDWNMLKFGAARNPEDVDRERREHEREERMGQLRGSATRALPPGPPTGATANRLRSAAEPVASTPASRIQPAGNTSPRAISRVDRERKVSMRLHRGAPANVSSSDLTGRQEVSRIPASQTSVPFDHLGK
In assay [14] the target is Serine/threonine-protein kinase pim-3 (Homo sapiens) (UniProt Q86V86). Conditions: dose 10.0 µM.
For assay [15], the target named is Homeodomain-interacting protein kinase 2 (Homo sapiens) (UniProt Q9H2X6). Conditions: dose 10.0 µM.
Assay [16] addresses Casein kinase I isoform delta (Homo sapiens) (UniProt P48730). Conditions: dose 10.0 µM.
Assay [17] concerns the target T5, Casein kinase I isoform epsilon.
Target sequence in this assay (P49674 whole entry, canonical isoform): as the sequence (P49674 whole entry, looked up, canonical isoform) above
Assay [18] deals with Cyclin-dependent kinase 5/CDK5 activator 1 (Homo sapiens, UniProt Q00535). In kind it is cell-based, Sf9.
For assay [19], the target named is T1, Dual specificity protein kinase CLK1. In kind it is cell-based, Sf9.
Target sequence in this assay (P49759 whole entry): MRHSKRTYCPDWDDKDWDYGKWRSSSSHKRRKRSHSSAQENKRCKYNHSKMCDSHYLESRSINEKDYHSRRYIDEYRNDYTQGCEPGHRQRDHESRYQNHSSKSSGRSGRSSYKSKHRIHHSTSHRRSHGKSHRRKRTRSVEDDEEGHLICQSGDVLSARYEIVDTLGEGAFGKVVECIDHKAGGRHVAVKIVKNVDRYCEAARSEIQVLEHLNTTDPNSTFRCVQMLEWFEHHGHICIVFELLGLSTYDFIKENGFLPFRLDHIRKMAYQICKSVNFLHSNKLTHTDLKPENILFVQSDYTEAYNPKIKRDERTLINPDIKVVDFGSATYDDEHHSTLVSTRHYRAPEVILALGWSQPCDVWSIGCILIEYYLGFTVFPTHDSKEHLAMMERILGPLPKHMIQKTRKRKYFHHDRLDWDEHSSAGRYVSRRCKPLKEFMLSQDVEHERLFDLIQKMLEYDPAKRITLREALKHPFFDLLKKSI
Assay [20] has as its target Dual specificity protein kinase CLK2 (Homo sapiens, UniProt P49760).
Assay [21] concerns the target T2, Dual specificity protein kinase CLK3. In kind it is cell-based, Sf9.
Target sequence in this assay (P49761 whole entry): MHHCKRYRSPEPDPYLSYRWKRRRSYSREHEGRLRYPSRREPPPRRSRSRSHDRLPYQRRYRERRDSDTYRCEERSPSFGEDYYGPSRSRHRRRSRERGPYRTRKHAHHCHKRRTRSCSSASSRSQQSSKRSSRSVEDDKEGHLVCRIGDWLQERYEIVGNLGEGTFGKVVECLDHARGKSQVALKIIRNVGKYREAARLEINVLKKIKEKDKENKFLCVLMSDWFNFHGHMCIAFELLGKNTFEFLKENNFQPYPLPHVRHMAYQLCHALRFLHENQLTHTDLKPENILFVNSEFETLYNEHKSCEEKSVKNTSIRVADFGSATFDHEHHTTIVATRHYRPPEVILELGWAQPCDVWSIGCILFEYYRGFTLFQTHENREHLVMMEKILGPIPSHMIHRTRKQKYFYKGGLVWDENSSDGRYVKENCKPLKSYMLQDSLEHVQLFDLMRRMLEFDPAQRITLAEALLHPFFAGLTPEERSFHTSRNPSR
The target of assay [22] is Dual specificity protein kinase CLK4 (Homo sapiens, UniProt Q9HAZ1).
Assay [23] deals with T6, Dual specificity tyrosine-phosphorylation-regulated kinase 2 (Homo sapiens, UniProt Q92630).
T6 sequence (Q92630 whole entry): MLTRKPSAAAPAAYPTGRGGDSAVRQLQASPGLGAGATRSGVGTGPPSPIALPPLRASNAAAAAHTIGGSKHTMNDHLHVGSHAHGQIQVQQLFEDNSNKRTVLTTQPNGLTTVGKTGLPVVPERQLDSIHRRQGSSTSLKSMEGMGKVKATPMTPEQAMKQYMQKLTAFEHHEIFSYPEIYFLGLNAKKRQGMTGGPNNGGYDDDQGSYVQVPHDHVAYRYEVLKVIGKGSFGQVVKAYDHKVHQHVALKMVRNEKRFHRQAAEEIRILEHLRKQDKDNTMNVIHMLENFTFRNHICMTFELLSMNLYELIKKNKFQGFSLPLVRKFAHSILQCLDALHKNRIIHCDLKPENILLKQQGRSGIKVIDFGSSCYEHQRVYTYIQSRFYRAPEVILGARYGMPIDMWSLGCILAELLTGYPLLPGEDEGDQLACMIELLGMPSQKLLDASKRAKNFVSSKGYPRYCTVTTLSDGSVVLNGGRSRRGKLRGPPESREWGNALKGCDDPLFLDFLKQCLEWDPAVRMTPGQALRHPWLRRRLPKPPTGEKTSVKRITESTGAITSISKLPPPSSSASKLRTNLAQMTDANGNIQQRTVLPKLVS

Assay [24] has as its target T7, Dual specificity tyrosine-phosphorylation-regulated kinase 3 (Homo sapiens, UniProt O43781).
T7 sequence (O43781 whole entry): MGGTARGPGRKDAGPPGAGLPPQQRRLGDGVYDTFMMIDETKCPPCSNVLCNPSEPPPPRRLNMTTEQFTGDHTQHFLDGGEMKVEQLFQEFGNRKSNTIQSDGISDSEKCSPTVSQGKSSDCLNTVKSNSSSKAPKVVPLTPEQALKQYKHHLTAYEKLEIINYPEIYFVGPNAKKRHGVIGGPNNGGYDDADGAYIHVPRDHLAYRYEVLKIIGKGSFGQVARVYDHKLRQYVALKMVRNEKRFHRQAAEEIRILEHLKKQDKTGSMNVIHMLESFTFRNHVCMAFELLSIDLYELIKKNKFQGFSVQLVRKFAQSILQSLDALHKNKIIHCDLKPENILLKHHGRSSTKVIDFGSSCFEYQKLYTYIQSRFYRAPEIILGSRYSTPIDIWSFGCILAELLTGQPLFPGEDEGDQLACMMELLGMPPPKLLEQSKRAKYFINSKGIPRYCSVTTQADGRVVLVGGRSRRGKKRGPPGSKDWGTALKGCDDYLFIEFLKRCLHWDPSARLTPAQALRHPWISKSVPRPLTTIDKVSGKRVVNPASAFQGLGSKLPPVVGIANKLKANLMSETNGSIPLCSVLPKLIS

Assay [25] has as its target T8, Dual specificity tyrosine-phosphorylation-regulated kinase 4 (Homo sapiens, UniProt Q9NR20).
T8 sequence (Q9NR20 whole entry): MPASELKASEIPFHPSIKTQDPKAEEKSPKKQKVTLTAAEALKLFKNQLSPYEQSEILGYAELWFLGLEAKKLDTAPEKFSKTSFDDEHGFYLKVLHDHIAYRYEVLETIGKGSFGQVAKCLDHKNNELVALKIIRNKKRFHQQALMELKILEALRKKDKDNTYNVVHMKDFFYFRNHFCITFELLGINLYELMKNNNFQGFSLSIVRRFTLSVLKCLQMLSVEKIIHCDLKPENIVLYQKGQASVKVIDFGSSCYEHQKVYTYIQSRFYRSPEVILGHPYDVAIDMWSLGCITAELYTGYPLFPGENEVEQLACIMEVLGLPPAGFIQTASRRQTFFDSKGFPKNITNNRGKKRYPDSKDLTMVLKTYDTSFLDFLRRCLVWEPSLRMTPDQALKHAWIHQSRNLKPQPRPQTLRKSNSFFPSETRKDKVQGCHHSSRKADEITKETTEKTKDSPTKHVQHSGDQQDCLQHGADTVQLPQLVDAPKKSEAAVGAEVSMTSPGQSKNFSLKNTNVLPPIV

The target of assay [26] is T4, Glycogen synthase kinase-3 beta. Type of assay: cell-based, Sf9.
Target sequence in this assay (P49841 whole entry): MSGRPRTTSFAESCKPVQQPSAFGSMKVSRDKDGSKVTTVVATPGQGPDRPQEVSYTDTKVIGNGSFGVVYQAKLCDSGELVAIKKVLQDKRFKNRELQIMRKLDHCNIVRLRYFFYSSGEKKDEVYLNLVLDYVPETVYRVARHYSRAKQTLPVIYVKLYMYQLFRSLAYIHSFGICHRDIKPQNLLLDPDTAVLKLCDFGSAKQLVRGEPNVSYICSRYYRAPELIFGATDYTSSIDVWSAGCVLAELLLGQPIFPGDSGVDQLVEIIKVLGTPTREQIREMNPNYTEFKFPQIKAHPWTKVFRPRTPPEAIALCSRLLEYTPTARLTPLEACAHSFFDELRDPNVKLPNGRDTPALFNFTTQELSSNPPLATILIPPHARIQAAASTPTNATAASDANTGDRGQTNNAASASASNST
The target in assay [27] is Dual specificity tyrosine-phosphorylation-regulated kinase 1A (Homo sapiens, UniProt Q13627).

Molecules are shown by their SMILES.

Sequence of Dual specificity protein kinase CLK2 (P49760 whole entry): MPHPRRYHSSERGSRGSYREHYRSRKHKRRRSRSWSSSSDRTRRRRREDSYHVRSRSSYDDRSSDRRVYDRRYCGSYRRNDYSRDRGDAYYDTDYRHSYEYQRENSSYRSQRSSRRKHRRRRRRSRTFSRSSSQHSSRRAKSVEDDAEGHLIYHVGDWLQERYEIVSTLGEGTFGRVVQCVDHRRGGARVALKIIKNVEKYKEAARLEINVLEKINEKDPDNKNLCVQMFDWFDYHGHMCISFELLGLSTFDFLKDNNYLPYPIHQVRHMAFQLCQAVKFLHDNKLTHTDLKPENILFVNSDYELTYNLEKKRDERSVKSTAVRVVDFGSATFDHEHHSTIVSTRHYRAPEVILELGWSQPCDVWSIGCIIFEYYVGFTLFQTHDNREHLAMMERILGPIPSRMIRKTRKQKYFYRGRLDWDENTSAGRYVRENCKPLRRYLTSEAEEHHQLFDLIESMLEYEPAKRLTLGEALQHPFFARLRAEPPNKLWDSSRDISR
Sequence of Dual specificity protein kinase CLK4 (Q9HAZ1 whole entry): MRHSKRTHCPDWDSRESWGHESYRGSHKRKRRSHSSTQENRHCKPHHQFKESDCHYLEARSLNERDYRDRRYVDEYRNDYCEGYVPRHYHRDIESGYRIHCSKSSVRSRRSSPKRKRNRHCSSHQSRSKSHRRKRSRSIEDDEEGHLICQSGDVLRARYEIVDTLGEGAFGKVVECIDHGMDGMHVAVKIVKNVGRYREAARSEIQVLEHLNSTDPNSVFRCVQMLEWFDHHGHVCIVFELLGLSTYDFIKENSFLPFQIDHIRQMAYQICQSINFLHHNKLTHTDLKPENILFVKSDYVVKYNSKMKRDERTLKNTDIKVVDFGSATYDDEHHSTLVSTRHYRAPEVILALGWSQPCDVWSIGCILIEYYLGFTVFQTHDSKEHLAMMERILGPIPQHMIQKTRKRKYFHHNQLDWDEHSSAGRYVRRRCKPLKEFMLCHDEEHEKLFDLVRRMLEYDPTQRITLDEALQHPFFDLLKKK
Sequence of Cyclin-dependent kinase 5/CDK5 activator 1 (Q00535 whole entry): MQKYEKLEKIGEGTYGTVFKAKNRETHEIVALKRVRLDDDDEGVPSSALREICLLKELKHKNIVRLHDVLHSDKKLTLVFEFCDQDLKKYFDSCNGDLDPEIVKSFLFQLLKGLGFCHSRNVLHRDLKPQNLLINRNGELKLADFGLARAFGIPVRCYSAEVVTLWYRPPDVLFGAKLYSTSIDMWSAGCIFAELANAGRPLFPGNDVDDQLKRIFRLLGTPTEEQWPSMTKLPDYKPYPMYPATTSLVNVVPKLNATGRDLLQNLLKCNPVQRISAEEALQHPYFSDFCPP
Sequence of Cyclin-dependent kinase 5/CDK5 activator 1 (Q15078 whole entry, further chain): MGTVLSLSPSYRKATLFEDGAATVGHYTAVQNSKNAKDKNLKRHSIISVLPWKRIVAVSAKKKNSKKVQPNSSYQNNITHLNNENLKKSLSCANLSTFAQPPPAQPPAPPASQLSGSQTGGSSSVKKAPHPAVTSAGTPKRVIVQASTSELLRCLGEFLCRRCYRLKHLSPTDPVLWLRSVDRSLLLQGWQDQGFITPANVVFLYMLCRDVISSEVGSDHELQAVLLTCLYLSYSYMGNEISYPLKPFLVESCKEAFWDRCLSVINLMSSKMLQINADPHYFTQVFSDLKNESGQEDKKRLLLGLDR
Sequence of Casein kinase I isoform delta (Homo sapiens) (P48730 whole entry, looked up, canonical isoform): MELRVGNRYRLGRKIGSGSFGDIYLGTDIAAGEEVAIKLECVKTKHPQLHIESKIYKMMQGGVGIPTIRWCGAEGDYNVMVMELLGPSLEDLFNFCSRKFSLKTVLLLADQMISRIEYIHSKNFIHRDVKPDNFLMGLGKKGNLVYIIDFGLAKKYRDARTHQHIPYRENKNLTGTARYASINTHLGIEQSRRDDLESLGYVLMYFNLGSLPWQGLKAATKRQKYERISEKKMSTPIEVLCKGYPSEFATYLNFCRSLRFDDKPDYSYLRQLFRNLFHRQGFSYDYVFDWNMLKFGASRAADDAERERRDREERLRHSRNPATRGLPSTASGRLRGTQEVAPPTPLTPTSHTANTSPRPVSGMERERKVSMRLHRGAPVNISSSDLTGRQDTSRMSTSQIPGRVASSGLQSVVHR
Sequence of Casein kinase II subunit alpha (Homo sapiens) (P68400 whole entry, looked up): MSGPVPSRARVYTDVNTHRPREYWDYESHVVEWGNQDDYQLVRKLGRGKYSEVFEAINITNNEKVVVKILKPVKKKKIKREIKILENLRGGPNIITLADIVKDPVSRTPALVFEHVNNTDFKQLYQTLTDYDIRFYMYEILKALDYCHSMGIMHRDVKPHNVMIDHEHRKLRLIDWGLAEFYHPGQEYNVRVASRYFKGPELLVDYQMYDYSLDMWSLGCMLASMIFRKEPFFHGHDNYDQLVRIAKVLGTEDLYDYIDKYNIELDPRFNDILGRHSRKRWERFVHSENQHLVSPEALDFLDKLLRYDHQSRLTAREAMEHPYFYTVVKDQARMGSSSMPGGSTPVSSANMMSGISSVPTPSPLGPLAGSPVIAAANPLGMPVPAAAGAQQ

What is called ΔTm is the change in melting temperature against a reference sample. On to `CN1CCN(C(=O)C(C)(C)c2ccc(C(=O)Nc3cn4cc(-c5ccncc5)ccc4n3)cc2)CC1`, for which the values for the ΔTm in assay [1] and in assay [2] were 15.7 °C and 15 °C, respectively.
With `O=C1NC(NC23CC4CC(CC(C4)C2)C3)=N/C1=C\c1ccc2ncsc2c1`, the thermal shift (ΔTm) in assay [1] is 19.9 °C; in assay [3] it was 12.4 °C; in [4], 10.3 °C; in [5], 10.2 °C; in assay [6], 9.8 °C; in assay [7], 9.7 °C. Besides, the ΔTm came to 9.7 °C in [2]; 7.6 °C in assay [8]; 7.5 °C in [9]; 6.5 °C in assay [10]; 6.1 °C in assay [11]; 5.6 °C in [12]. In addition, the ΔTm in [13] was found to be 5.5 °C; in [14], 5.5 °C; in assay [15], 5.2 °C; in assay [16], 5 °C.
One may read the IC50 as the midpoint of a concentration-inhibition curve. As for `O=C1NC(NC2CCCCC2)=N/C1=C\c1ccc2[nH]ccc2c1`, the IC50 in assay [17], in assay [18], in assay [19], in [20], in [21] and in assay [22] was > 10 µM each time. The IC50 in assay [23], in assay [24], in assay [25], in assay [26] and in assay [27] was > 10 µM each time.
For `Cn1ccc2cc(/C=C3\N=C(NC45CC6CC(CC(C6)C4)C5)NC3=O)ccc21`, the IC50 in assay [17], in [18], in assay [19], in assay [20], in assay [21] and in [22] was > 10 µM in each case. The concentration for half-maximal inhibition (IC50) in [23], in assay [24], in [25], in assay [26] and in assay [27] was > 10 µM throughout.
Regarding `Nc1nccc(-c2c(-c3ccc(F)cc3)ncn2C2CCCCC2)n1`, the ΔTm in assay [13] was found to be 8 °C; in assay [16] it was 9 °C.
As to `CN[C@@H]1C[C@H]2O[C@@](C)([C@@H]1OC)n1c3ccccc3c3c4c(c5c6ccccc6n2c5c31)C(=O)NC4`, the ΔTm amounted to 14 °C in assay [4], 11.9 °C in assay [14] and 4.5 °C in assay [15].
For `O=C1NC(NC2CCCCCC2)=N/C1=C\c1ccc2ncoc2c1`, the IC50 in assay [17] is > 10 µM; in [18] it was > 10 µM; in assay [19], 0.018 µM; in assay [20], 0.174 µM; in assay [21], 0.285 µM; in assay [22], 0.011 µM. The IC50 in [23] was 0.566 µM; in assay [24], 1.14 µM; in [25], 0.617 µM; in [26] it was 3.02 µM; in assay [27], 0.013 µM.
